Measured values reported in PubChem BioAssay (NCI).
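A five-concentration, 48-hour dose response in 96-well plates underlies each endpoint, interpolated linearly between surrounding concentrations. TGI: concentration producing complete growth inhibition.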

Columns and labels:
Assay in all cases: inhibition of tumour cell growth, NCI panel, 48 h
[1] = system: MALME-3M melanoma
[2] = system: SK-MEL-28 melanoma
[3] = system: SW-620 colon
[4] = system: SK-MEL-2 melanoma
[5] = system: SN12C renal
[6] = system: SR leukemia
[7] = system: HOP-92 NSCLC
[8] = system: A498 renal
[9] = system: CCRF-CEM leukemia
[10] = system: OVCAR-8 ovarian
[11] = system: K-562 leukemia
[12] = system: SNB-75 CNS
[13] = system: PC-3 prostate
[14] = system: IGROV1 ovarian
[15] = system: LOX IMVI melanoma
[16] = system: NCI-H23 lung
[17] = system: NCI-H460 lung
[18] = system: SNB-78 CNS
[19] = system: HCT-116 colon
[20] = system: UACC-62 melanoma
[21] = system: HL-60(TB) leukemia
[22] = system: HS 578T breast
[23] = system: DU-145 prostate
[24] = system: MDA-MB-435
[25] = system: CAKI-1 renal
[26] = system: UACC-257 melanoma
[27] = system: OVCAR-4 ovarian
[28] = system: SK-MEL-5 melanoma
[29] = system: HOP-62 NSCLC
[30] = system: TK-10 renal
[31] = system: RXF 393 renal
[32] = system: UO-31 renal
[33] = system: KM12 colon
[34] = system: HCC-2998 colon
[35] = system: OVCAR-5 ovarian
[36] = system: SF-539 CNS
[37] = system: U251 CNS
[38] = system: LXFL 529 NSCLC
[39] = system: EKVX NSCLC
[40] = system: SNB-19 CNS
[41] = system: BT-549 breast
[42] = system: DMS 273 small cell lung
[43] = system: HCT-15 colon
[44] = system: COLO 205 colon
[45] = system: ACHN renal
[46] = system: SF-295 CNS
[47] = system: MDA-N
[48] = system: MDA-MB-231 breast
[49] = system: SK-OV-3 ovarian
[50] = system: RPMI-8226 leukemia
[51] = system: SF-268 CNS
[52] = system: MCF7 breast
[53] = system: MOLT-4 leukemia
[54] = system: XF 498 CNS
[55] = system: T-47D breast
[56] = system: A549 NSCLC
[57] = system: OVCAR-3 ovarian
[58] = system: NCI-H226 lung
[59] = system: NCI/ADR-RES ovarian
[60] = system: NCI-H522 lung
[61] = system: DLD-1 colon
[62] = system: HT29 colon
[63] = system: 786-0 renal
[64] = system: M14 melanoma
[65] = system: M19-MEL melanoma
[66] = system: KM20L2 colon
[67] = system: DMS 114 small cell lung

Compound: Cc1cc2c(c3c1c1ccccc1n3C)C(=O)C=CC2=O
- TGI [1]: > 82.6 µM
- TGI [2]: 47.9 µM
- TGI [3]: 28.7 µM
- TGI [4]: 51.9 µM
- TGI [5]: > 82.7 µM
- TGI [6]: 4.56 µM
- TGI [7]: 31.4 µM
- TGI [8]: > 100 µM
- TGI [9]: > 24 µM
- TGI [10]: 56.4 µM
- TGI [11]: > 54 µM
- TGI [12]: > 100 µM
- TGI [13]: 36.3 µM
- TGI [14]: > 78.2 µM
- TGI [15]: 35.6 µM
- TGI [16]: 31 µM
- TGI [17]: > 100 µM
- TGI [18]: 98.7 µM
- TGI [19]: 43.8 µM
- TGI [20]: 51.1 µM
- TGI [21]: 16 µM
- TGI [22]: 80.5 µM
- TGI [23]: > 100 µM
- TGI [24]: > 100 µM
- TGI [25]: > 70.2 µM
- TGI [26]: 69 µM
- TGI [27]: 30.6 µM
- TGI [28]: > 90.1 µM
- TGI [29]: > 100 µM
- TGI [30]: 65 µM
- TGI [31]: 30.5 µM
- TGI [32]: 36.5 µM
- TGI [33]: 57.9 µM
- TGI [34]: > 92.5 µM
- TGI [35]: > 100 µM
- TGI [36]: 71 µM
- TGI [37]: 45.1 µM
- TGI [38]: 16.7 µM
- TGI [39]: > 100 µM
- TGI [40]: > 100 µM
- TGI [41]: 31.4 µM
- TGI [42]: 55.9 µM
- TGI [43]: 36.5 µM
- TGI [44]: > 100 µM
- TGI [45]: > 64.6 µM
- TGI [46]: > 88.4 µM
- TGI [47]: 62.5 µM
- TGI [48]: 75 µM
- TGI [49]: > 100 µM
- TGI [50]: 26.5 µM
- TGI [51]: 70.5 µM
- TGI [52]: 25.8 µM
- TGI [53]: 12 µM
- TGI [54]: 37.9 µM
- TGI [55]: 48.8 µM
- TGI [56]: > 100 µM
- TGI [57]: 22.9 µM
- TGI [58]: > 100 µM
- TGI [59]: > 100 µM
- TGI [60]: 34.7 µM
- TGI [61]: 20.4 µM
- TGI [62]: > 70.2 µM
- TGI [63]: 17.3 µM
- TGI [64]: 88 µM

Compound: CCNc1nnc(CSc2nc(-c3ccccc3)c(-c3ccccc3)[nH]2)s1
- TGI [1]: 48.4 µM
- TGI [2]: 36.1 µM
- TGI [3]: 44.1 µM
- TGI [4]: 41.9 µM
- TGI [5]: 56.5 µM
- TGI [6]: > 100 µM
- TGI [7]: 41.9 µM
- TGI [9]: 40.3 µM
- TGI [10]: 30 µM
- TGI [12]: 82.6 µM
- TGI [15]: 31.1 µM
- TGI [16]: 65.3 µM
- TGI [17]: 59.2 µM
- TGI [18]: 96.3 µM
- TGI [19]: 38.8 µM
- TGI [21]: 37 µM
- TGI [65]: 32.1 µM
- TGI [26]: 34.9 µM
- TGI [27]: > 100 µM
- TGI [28]: 24.1 µM
- TGI [29]: 35.7 µM
- TGI [30]: 56.5 µM
- TGI [32]: 29.5 µM
- TGI [33]: 23.9 µM
- TGI [66]: 46.1 µM
- TGI [35]: 39.8 µM
- TGI [36]: 33.2 µM
- TGI [37]: 26.9 µM
- TGI [38]: 64.8 µM
- TGI [39]: 44.4 µM
- TGI [40]: 34 µM
- TGI [42]: 42.9 µM
- TGI [43]: 43.8 µM
- TGI [44]: 51.2 µM
- TGI [45]: 74.6 µM
- TGI [46]: 34.1 µM
- TGI [67]: 63.1 µM
- TGI [49]: 41.7 µM
- TGI [50]: 54.9 µM
- TGI [51]: 39.3 µM
- TGI [53]: 56.7 µM
- TGI [56]: 69.5 µM
- TGI [57]: 37.1 µM
- TGI [58]: 35 µM
- TGI [60]: 39.7 µM
- TGI [61]: 52.7 µM
- TGI [62]: 37.9 µM
- TGI [63]: 56.6 µM
- TGI [64]: 35.7 µM

Compound: O=C(O)c1ccc(NC(=O)C2C(=O)C(=O)N(c3ccc(C(=O)O)cc3)C2=O)cc1 (stereo not given)
- TGI [1]: > 100 µM
- TGI [2]: > 100 µM
- TGI [3]: > 100 µM
- TGI [4]: > 100 µM
- TGI [5]: > 100 µM
- TGI [7]: > 100 µM
- TGI [8]: > 100 µM
- TGI [9]: > 100 µM
- TGI [10]: > 100 µM
- TGI [11]: > 100 µM
- TGI [12]: > 100 µM
- TGI [14]: > 100 µM
- TGI [15]: > 100 µM
- TGI [16]: > 100 µM
- TGI [17]: > 100 µM
- TGI [18]: > 100 µM
- TGI [19]: > 100 µM
- TGI [20]: > 100 µM
- TGI [21]: > 100 µM
- TGI [65]: > 100 µM
- TGI [25]: > 100 µM
- TGI [26]: > 100 µM
- TGI [27]: > 100 µM
- TGI [29]: > 100 µM
- TGI [30]: > 100 µM
- TGI [31]: > 100 µM
- TGI [32]: > 100 µM
- TGI [33]: > 100 µM
- TGI [66]: > 100 µM
- TGI [34]: > 100 µM
- TGI [35]: > 100 µM
- TGI [36]: > 100 µM
- TGI [37]: > 100 µM
- TGI [39]: > 100 µM
- TGI [40]: > 100 µM
- TGI [42]: > 100 µM
- TGI [43]: > 100 µM
- TGI [44]: > 100 µM
- TGI [45]: > 100 µM
- TGI [46]: > 100 µM
- TGI [49]: > 100 µM
- TGI [50]: > 100 µM
- TGI [51]: > 100 µM
- TGI [53]: > 100 µM
- TGI [54]: > 100 µM
- TGI [56]: > 100 µM
- TGI [57]: > 100 µM
- TGI [58]: > 100 µM
- TGI [60]: > 100 µM
- TGI [61]: > 100 µM
- TGI [62]: > 100 µM
- TGI [63]: > 100 µM
